From US9573891B2, “Complexes of agomelatine and sulphonic acids, a process for their preparation and pharmaceutical compositions containing them” (LES LABORATOIRES SERVIER, priority 2013, dated 2017)

Assays:
[1] = Solubility by HPLC (external standard method) compared with agomelatine of form II; format: physicochemical
Procedure: Using an external standard method, the compounds of Examples 1, 2 and 3 are tested by HPLC and compared with agomelatine of form II. The results are presented in Table 5 in the form of % increase in solubility relative to the solubility of agomelatine of form II: […]

[2] = Stability under denaturing conditions in incubators, determined by DSC over 2 months; format: physicochemical
Procedure: Samples of the compounds of Examples 1, 2 and 3 are placed in incubators under denaturing conditions and the stability is determined by DSC measurements over 2 months.

Row | Solubility (increase versus agomelatine form II) in 0.1N HCl [1] | Solubility (increase versus agomelatine form II) in a buffer pH 6.8 [1] | Solubility (increase versus agomelatine form II) in water [1] | Stability ([2]; 25° C., 60% RH, open bottle) | Stability ([2]; 50° C., closed bottle) | Stability ([2]; 70° C., closed bottle) | Structure (SMILES)
1 | +25% | +48% | +18% | stable | stable | stable | COc1ccc2cccc(CCNC(C)=O)c2c1.O=S(=O)(O)c1cccc2c(S(=O)(=O)O)cccc12 [Compound of Example 1, Agomelatine/1,5-Naphthalenedisulphonic Acid (2/1) Complex]
2 | +75% | +57% | +12% | stable | stable | stable | COc1ccc2cccc(CCNC(C)=O)c2c1.O.O=S(=O)(O)c1cccc2c(S(=O)(=O)O)cccc12 [Compound of Example 2, Agomelatine/1,5-Naphthalenedisulphonic Acid (2/1) Monohydrate Complex]
3 | +32% | +46% | +22% | stable | stable | stable | COc1ccc2cccc(CCNC(C)=O)c2c1.COc1ccc2cccc(CCNC(C)=O)c2c1.O=S(=O)(O)c1ccccc1 [Compound of Example 3, Agomelatine/Benzenesulphonic Acid (2/1) Complex]
